Laboratory results: article PMC5222732 (Journal of medicinal chemistry, 2016)
Where “and” joins values, the source holds several entries; their conditions need not be identical. Equal values may be shown once. Read-outs that look alike come from different tables or passages of the source.

Assays:
[1] = target: bovine serum albumin (BSA) (Bos taurus, UniProt P02769); test: Determination of serum albumin binding; assay type: in vitro ADME; conditions: BSA 20 mg/mL, pH 7.4, 37 °C, 24-96 h
[2] = target: μ opioid receptor (MOR) (Rattus norvegicus, UniProt P33535); assay type: binding
[3] = system: Sprague-Dawley rats; test: Tail heat algesia test; assay type: in vivo; conditions: rat, 1 mg/kg iv, morphine 4 mg/kg sc
[4] = In vivo brain uptake study, LC-MS/MS
[5] = target: κ opioid receptor (KOR) (Cavia porcellus, UniProt P41144); test: GPI functional assay, κ antagonist Ke; assay type: cell-based, guinea pig
[6] = system: Sprague-Dawley rats; test: Hot plate algesia test; assay type: in vivo; conditions: rat; for effect on morphine analgesia, heat withdrawal threshold (hot plate): morphine 4 mg/kg sc
[7] = target: mouse vas deferens (MVD), DOR (Mus musculus, UniProt P32300); test: DOR-representative MVD functional assay; assay type: cell-based
[8] = Plasma stability assay; assay type: in vitro ADME; conditions: 37 °C
[9] = system: μ opioid receptor (MOR); assay type: cell-based, guinea pig
[10] = target: δ receptors (DOR) (Rattus norvegicus, UniProt P33533); test: δ opioid receptor binding, [3H]DSLET displacement from rat brain membranes; conditions: compared with cyclodal
Sequence of δ receptors (DOR) (P33533 whole entry): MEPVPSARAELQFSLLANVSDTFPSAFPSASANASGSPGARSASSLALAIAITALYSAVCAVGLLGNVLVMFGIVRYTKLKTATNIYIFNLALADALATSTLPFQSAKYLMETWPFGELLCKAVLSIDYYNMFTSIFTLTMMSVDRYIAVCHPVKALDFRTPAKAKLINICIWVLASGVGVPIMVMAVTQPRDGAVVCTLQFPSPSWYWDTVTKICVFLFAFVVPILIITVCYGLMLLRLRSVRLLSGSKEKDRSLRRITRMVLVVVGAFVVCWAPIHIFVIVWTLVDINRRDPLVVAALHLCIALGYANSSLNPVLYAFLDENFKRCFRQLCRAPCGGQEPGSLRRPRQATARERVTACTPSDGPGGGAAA

Sequence of mouse vas deferens (MVD), DOR (P32300 whole entry): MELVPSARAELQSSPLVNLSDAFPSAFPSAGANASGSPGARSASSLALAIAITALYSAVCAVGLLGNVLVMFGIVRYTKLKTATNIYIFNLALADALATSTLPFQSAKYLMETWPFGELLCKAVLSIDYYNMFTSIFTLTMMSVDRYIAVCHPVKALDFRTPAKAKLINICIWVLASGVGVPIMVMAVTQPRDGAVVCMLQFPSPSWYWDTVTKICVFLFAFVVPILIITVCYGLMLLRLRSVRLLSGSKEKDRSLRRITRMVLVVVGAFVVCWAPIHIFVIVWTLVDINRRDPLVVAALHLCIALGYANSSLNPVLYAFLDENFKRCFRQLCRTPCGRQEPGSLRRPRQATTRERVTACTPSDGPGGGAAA
Sequence of μ opioid receptor (MOR) (Rattus norvegicus, UniProt P33535) (P33535 whole entry): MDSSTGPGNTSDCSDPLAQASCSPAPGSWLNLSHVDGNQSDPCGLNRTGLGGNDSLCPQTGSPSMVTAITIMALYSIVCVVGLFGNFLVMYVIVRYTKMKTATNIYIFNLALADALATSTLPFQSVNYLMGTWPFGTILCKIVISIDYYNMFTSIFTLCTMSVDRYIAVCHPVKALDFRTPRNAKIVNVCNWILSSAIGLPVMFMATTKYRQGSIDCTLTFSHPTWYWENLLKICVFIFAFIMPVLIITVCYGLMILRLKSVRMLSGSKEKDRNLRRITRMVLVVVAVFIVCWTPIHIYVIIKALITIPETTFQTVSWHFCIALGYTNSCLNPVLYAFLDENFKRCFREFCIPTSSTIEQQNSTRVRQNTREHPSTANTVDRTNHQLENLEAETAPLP
Sequence of κ opioid receptor (KOR) (P41144 whole entry): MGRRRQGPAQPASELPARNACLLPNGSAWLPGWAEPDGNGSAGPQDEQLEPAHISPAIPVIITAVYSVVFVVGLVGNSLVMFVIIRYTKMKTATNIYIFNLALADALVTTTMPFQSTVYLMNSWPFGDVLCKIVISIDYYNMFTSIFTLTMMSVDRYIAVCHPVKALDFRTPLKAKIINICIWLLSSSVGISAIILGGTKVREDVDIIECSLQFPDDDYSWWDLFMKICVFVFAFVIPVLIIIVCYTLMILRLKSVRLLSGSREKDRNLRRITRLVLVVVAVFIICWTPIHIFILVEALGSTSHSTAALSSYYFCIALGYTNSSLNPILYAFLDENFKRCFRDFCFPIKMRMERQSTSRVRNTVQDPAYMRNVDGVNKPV
Sequence of bovine serum albumin (BSA) (P02769 25-607): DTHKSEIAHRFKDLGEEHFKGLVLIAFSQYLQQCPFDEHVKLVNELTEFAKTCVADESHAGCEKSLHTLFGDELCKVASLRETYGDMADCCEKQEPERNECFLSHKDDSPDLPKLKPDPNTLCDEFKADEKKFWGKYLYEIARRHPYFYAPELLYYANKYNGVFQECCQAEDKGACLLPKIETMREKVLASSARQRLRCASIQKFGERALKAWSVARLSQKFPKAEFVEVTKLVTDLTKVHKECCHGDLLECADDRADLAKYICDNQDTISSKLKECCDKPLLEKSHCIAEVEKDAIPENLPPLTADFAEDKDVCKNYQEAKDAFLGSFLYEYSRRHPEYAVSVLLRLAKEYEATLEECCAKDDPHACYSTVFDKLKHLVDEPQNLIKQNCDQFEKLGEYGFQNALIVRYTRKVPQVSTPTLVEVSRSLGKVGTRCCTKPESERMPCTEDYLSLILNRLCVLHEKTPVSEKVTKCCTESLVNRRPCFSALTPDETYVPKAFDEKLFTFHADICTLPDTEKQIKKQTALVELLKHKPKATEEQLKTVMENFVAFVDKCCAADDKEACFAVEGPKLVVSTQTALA

Q: What does the source list for `Cc1cc(O)cc(C)c1C[C@@H]1NC(=O)[C@H](CCCCN)NC(=O)[C@H](Cc2ccccc2)NC(=O)[C@@H](CCCNC(=N)N)NC1=O` [compound 1, c[-D-Arg-Phe-Lys-Dmt-]]?
A: BSA absorption [1]: No decrease in peptide peak intensity was observed; higher MOR binding affinity [2]: 20 fold; effect on tail withdrawal latency (TWL) after morphine [3]: not at a dose of 1 mg/kg; plasma AUC ([4]; male CD1 mice, 2 mg/kg iv): 0.0303 µg·min/mL; time of maximum brain concentration ([4]; mice, 2 mg/kg iv, after administration): 30 min; Kb ([5]; GPI Ke (KOR antagonist), against dynorphin A(1-13)): 0.206 ± 0.024 µM; Kb ([5]; GPI Ke^κ, determined against U50,488): 0.0403 ± 0.0026 µM; effect on morphine analgesia, heat withdrawal threshold (hot plate) ([6]; 1 mg/kg iv): not at the 1 mg/kg dose; effect on morphine analgesia, heat withdrawal threshold (hot plate) ([6]; 5 mg/kg iv): morphine analgesia at the 30 min time point was reduced; activity in the MVD assay [7]: low efficacy partial agonist activity; activity in the MVD assay ([7]; listed as cyclodal): weak DOR partial agonist; stability in rat plasma [8]: stable for up to 48 h; GPI Ke (MOR antagonist) [9]: 3.12 ± 0.20 nM and 3.06 ± 0.62 nM; GPI Ke^μ [9]: 3.26 ± 0.84 nM

Q: Which “activity in the MVD assay” value [7] does the source give for `CCCC[C@@H]1NC(=O)[C@H](Cc2ccccc2)NC(=O)[C@@H](CCCNC(=N)N)NC(=O)[C@H](Cc2c(C)cc(O)cc2C)NC1=O` [compound 4, c[-D-Arg-Phe-Nle-Dmt-]] here?
A: Its value is “low efficacy partial agonist activity”.

Q: Which “activity in the MVD assay” value [7] does the source give for `Cc1cc(O)cc(C)c1C[C@@H]1NC(=O)[C@H](CCCN)NC(=O)[C@H](Cc2ccccc2)NC(=O)[C@@H](CCCNC(=N)N)NC1=O` [compound 6, c[-D-Arg-Phe-Orn-Dmt-]] here?
A: The value was “low efficacy partial agonist activity”.

Q: And the “GPI Ke^μ” value [9]?
A: The value was 16.8 ± 2.6 nM.

Q: What does the source list for `Cc1cc(O)cc(C)c1C[C@@H]1NC(=O)C[C@H](CCCCN)NC(=O)[C@H](Cc2ccccc2)NC(=O)[C@@H](CCCNC(=N)N)NC1=O` [compound 7, c[-D-Arg-Phe-β-hLys-Dmt-]]?
A: Ki ratio μ/δ/κ [2]: 1/135/6; reduced/lower MOR binding affinity [2]: 2 fold; Kb [5]: 0.0182 ± 0.0017 µM; more potent KOR antagonist [5]: 2 fold; lower DOR binding affinity [10]: 11 fold; MVD IC50 [7]: inactive; GPI Ke^μ [9]: 10.5 ± 1.1 nM

Q: Which results are given for `Cc1cc(O)cc(C)c1C[C@H](N)C(=O)N[C@H](CCCNC(=N)N)C(=O)N[C@@H](Cc1ccccc1)C(=O)N[C@@H](CCCCN)C(N)=O` [compound 9, H-Dmt-D-Arg-Phe-Lys-NH2]?
A: BSA absorption [1]: No decrease in peptide peak intensity was observed; brain AUC ([4]; male CD1 mice, 2 mg/kg iv): 0.352 µg·min/g; AUC ([4]; male, CD1, mouse, in vivo, iv, 2 mg/kg): 0.083 µg·h/mL

Q: What does the source list for `C[C@@H](O)[C@H](NC(=O)[C@H]1NC(=O)[C@H]([C@@H](C)O)NC(=O)[C@H](CCCN)NC(=O)[C@@H](Cc2c[nH]c3ccccc23)NC(=O)[C@H](Cc2ccc(O)cc2)NC(=O)[C@@H](NC(=O)[C@H](N)Cc2ccccc2)CSSC1(C)C)C(N)=O` [compound 10, H-D-Phe-c[Cys-Tyr-D-Trp-Orn-Thr-Pen]-Thr-NH2, reference compound]?
A: Kb [5]: 6.94 ± 0.58 µM; activity in the MVD assay [7]: low efficacy partial agonist activity; GPI Ke^μ [9]: 40.9 ± 2.7 nM

Q: For `CN1CC[C@]23c4c5ccc(O)c4O[C@H]2[C@@H](O)C=C[C@H]3[C@H]1C5` [morphine, reference compound], which “analgesia, heat withdrawal threshold (hot plate)” value ([6]; 4 mg/kg sc, compared to vehicle) is on record?
A: The value was “produced analgesia compared to vehicle at the 30 and 60 min time points”.
